Reference: article PMC8286840, “Identifying SARS-CoV-2 antiviral compounds by screening for small molecule inhibitors of Nsp3 papain-like protease” (Biochemical Journal, 2021)
Where a name gives a salt, the structure may show the parent alone. Read-outs that look alike come from different tables or passages of the source.

Assays:
[1] = target: T1, SARS-CoV-2 PLpro (nsp3 1564–1878) (Severe acute respiratory syndrome coronavirus 2, UniProt P0DTD1); test: biochemical; design: FRET-quenched peptide (Pro3) cleavage by PLpro, 10 min pre-incubation, slope over 20 min, normalised to no-compound control; conditions: high concentration screen, read-out: % of control remaining
[2] = target: T1, SARS-CoV-2 PLpro (nsp3 1564–1878); test: biochemical; design: FRET-quenched peptide (Pro3) cleavage by PLpro, 10 min pre-incubation, slope over 20 min, normalised to no-compound control; conditions: low concentration screen, read-out: % of control remaining

Structure (SMILES): NS(=O)(=O)c1cc2c(cc1Cl)NCNS2(=O)=O [Hydrochlorothiazide]
- remaining activity at 3.75 µM ([1]; Well no.=658): 98.6%
- remaining activity at 1.25 µM ([2]; Well no.=658): 100%

Structure (SMILES): O=C(O)CCc1ccccc1 [Hydrocinnamic acid]
- remaining activity at 3.75 µM ([1]; Well no.=6731): 96.7%
- remaining activity at 1.25 µM ([2]; Well no.=6731): 98.5%

Structure (SMILES): CC(=O)OCC(=O)[C@@]1(O)CC[C@H]2[C@@H]3CCC4=CC(=O)CC[C@]4(C)[C@H]3[C@@H](O)C[C@@]21C [Hydrocortisone 21-acetate]
- remaining activity at 3.75 µM ([1]; Well no.=2214): 101%
- remaining activity at 1.25 µM ([2]; Well no.=2214): 100%

Structure (SMILES): C[C@]12CCC(=O)C=C1CC[C@@H]1[C@@H]2[C@@H](O)C[C@@]2(C)[C@H]1CC[C@]2(O)C(=O)COC(=O)CCC(=O)O [Hydrocortisone 21-hemisuccinate sodium salt]
- remaining activity at 3.75 µM ([1]; Well no.=5653): 102%
- remaining activity at 1.25 µM ([2]; Well no.=5653): 99%

Structure (SMILES): C[C@]12CCC(=O)C=C1CC[C@@H]1[C@@H]2[C@@H](O)C[C@@]2(C)[C@H]1CC[C@]2(O)C(=O)COC(=O)CCC(=O)O [Hydrocortisone 21-hemisuccinate sodium]
- remaining activity at 3.75 µM ([1]; Well no.=704): 93.3%
- remaining activity at 1.25 µM ([2]; Well no.=704): 92.7%

Structure (SMILES): CC(=O)OCC(=O)[C@@]1(O)CC[C@H]2[C@@H]3CCC4=CC(=O)CC[C@]4(C)[C@H]3[C@@H](O)C[C@@]21C [Hydrocortisone (acetate)]
- remaining activity at 3.75 µM ([1]; Well no.=7342): 109%
- remaining activity at 1.25 µM ([2]; Well no.=7342): 105%

Structure (SMILES): CCCC(=O)O[C@]1(C(=O)CO)CC[C@H]2[C@@H]3CCC4=CC(=O)CC[C@]4(C)[C@H]3[C@@H](O)C[C@@]21C [Hydrocortisone butyrate]
- remaining activity at 3.75 µM ([1]; Well no.=5418): 98.8%
- remaining activity at 1.25 µM ([2]; Well no.=5418): 94.8%

Structure (SMILES): C[C@]12CCC(=O)C=C1CC[C@@H]1[C@@H]2[C@@H](O)C[C@@]2(C)[C@H]1CC[C@]2(O)C(=O)CO [Hydrocortisone]
- remaining activity at 3.75 µM ([1]; Well no.=562): 101%
- remaining activity at 3.75 µM ([1]; Well no.=2212): 96%
- remaining activity at 3.75 µM ([1]; Well no.=6439): 102%
- remaining activity at 3.75 µM ([1]; Well no.=7331): 93.7%
- remaining activity at 1.25 µM ([2]; Well no.=562): 101%
- remaining activity at 1.25 µM ([2]; Well no.=2212): 93%
- remaining activity at 1.25 µM ([2]; Well no.=6439): 99.3%
- remaining activity at 1.25 µM ([2]; Well no.=7331): 93.2%

Structure (SMILES): COc1c2c(cc3c1OCO3)CCN(C)C2 [Hydrocotarnine HBr]
- remaining activity at 3.75 µM ([1]; Well no.=3462): 103%
- remaining activity at 1.25 µM ([2]; Well no.=3462): 102%

Structure (SMILES): Oc1ccc(O)cc1 [Hydroquinone]
- remaining activity at 3.75 µM ([1]; Well no.=472): 99.1%
- remaining activity at 3.75 µM ([1]; Well no.=3849): 106%
- remaining activity at 1.25 µM ([2]; Well no.=472): 102%
- remaining activity at 1.25 µM ([2]; Well no.=3849): 105%

Structure (SMILES): Nc1c2c(nc3ccccc13)CCCC2O (stereo not shown) [Hydroxytacrine maleate]
- remaining activity at 3.75 µM ([1]; Well no.=514): 101%
- remaining activity at 1.25 µM ([2]; Well no.=514): 102%

Structure (SMILES): Nc1c2c(nc3ccccc13)CCCC2O (stereo not shown) [Hydroxytacrine]
- remaining activity at 3.75 µM ([1]; Well no.=1671): 103%
- remaining activity at 1.25 µM ([2]; Well no.=1671): 103%

Structure (SMILES): NC(=O)NO [Hydroxyurea]
- remaining activity at 3.75 µM ([1]; Well no.=566): 96.1%
- remaining activity at 3.75 µM ([1]; Well no.=6544): 100%
- remaining activity at 1.25 µM ([2]; Well no.=566): 97.4%
- remaining activity at 1.25 µM ([2]; Well no.=6544): 103%

Structure (SMILES): OCCOCCN1CCN(C(c2ccccc2)c2ccc(Cl)cc2)CC1 (stereo not shown) [Hydroxyzine 2HCl]
- remaining activity at 3.75 µM ([1]; Well no.=5082): 99.9%
- remaining activity at 1.25 µM ([2]; Well no.=5082): 98.5%

Structure (SMILES): OCCOCCN1CCN(C(c2ccccc2)c2ccc(Cl)cc2)CC1 (stereo not shown) [Hydroxyzine (dihydrochloride)]
- remaining activity at 3.75 µM ([1]; Well no.=6901): 98%
- remaining activity at 1.25 µM ([2]; Well no.=6901): 100%

Structure (SMILES): CN[C@H]1C[C@@H](N)[C@H](O)[C@@H](O[C@@H]2O[C@H](CO)[C@H](O)[C@@H]3OC4(O[C@H]23)O[C@H]([C@@H](N)CO)[C@H](O)[C@H](O)[C@H]4O)[C@@H]1O (stereo partly shown) [Hygromycin B]
- remaining activity at 3.75 µM ([1]; Well no.=5221): 102%
- remaining activity at 1.25 µM ([2]; Well no.=5221): 99.8%

Structure (SMILES): C[C@H](CCC(=O)O)[C@H]1CC[C@H]2[C@@H]3C[C@H](O)[C@@H]4C[C@H](O)CC[C@]4(C)[C@H]3CC[C@]12C [Hyodeoxycholic acid]
- remaining activity at 3.75 µM ([1]; Well no.=5868): 101%
- remaining activity at 1.25 µM ([2]; Well no.=5868): 103%

Structure (SMILES): CN1[C@@H]2CC[C@H]1C[C@@H](OC(=O)[C@H](CO)c1ccccc1)C2 [Hyoscyamine]
- remaining activity at 3.75 µM ([1]; Well no.=3727): 101%
- remaining activity at 1.25 µM ([2]; Well no.=3727): 94.8%

Structure (SMILES): COC[C@@]12CC[C@H](OC)[C@@]34[C@@H]5C[C@@]6(O)[C@H](OC(=O)c7ccccc7)[C@@H]5[C@@](OC(C)=O)([C@@H]([C@H](OC)[C@H]13)[C@H]4N(C)C2)[C@@H](O)[C@@H]6OC [Hypaconitine]
- remaining activity at 3.75 µM ([1]; Well no.=6450): 87.8%
- remaining activity at 1.25 µM ([2]; Well no.=6450): 88.9%

Structure (SMILES): Cc1cc(O)c2c(=O)c3c(O)cc(O)c4c5c(O)cc(O)c6c(=O)c7c(O)cc(C)c8c1c2c(c34)c(c78)c65 [Hypericin]
- remaining activity at 3.75 µM ([1]; Well no.=520): 109%
- remaining activity at 3.75 µM ([1]; Well no.=3725): 97.9%
- remaining activity at 1.25 µM ([2]; Well no.=520): 109%
- remaining activity at 1.25 µM ([2]; Well no.=3725): 96.4%

Structure (SMILES): COc1c2c3c4c(c(OC)c(=O)c5c(O)cc(OC)c(c6c(OC)cc(O)c(c1=O)c63)c54)[C@@H](C(C)=O)[C@@](C)(O)C2 [Hypocrellin A]
- remaining activity at 3.75 µM ([1]; Well no.=3645): 92.4%
- remaining activity at 1.25 µM ([2]; Well no.=3645): 94%

Structure (SMILES): COc1c(O)c2c(=O)cc(OC)c3c4c(OC)cc(=O)c5c(O)c(OC)c6c(c(c1CC(C)=C6C(C)=O)c23)c54 [Hypocrellin B]
- remaining activity at 3.75 µM ([1]; Well no.=3691): 103%
- remaining activity at 1.25 µM ([2]; Well no.=3691): 100%

Structure (SMILES): NCCS(=O)O [Hypotaurine]
- remaining activity at 3.75 µM ([1]; Well no.=464): 102%
- remaining activity at 3.75 µM ([1]; Well no.=7779): 103%
- remaining activity at 1.25 µM ([2]; Well no.=464): 102%
- remaining activity at 1.25 µM ([2]; Well no.=7779): 106%

Structure (SMILES): O=c1[nH]cnc2nc[nH]c12 [Hypoxanthine]
- remaining activity at 3.75 µM ([1]; Well no.=5246): 96.5%
- remaining activity at 3.75 µM ([1]; Well no.=7269): 89.6%
- remaining activity at 1.25 µM ([2]; Well no.=5246): 96.5%
- remaining activity at 1.25 µM ([2]; Well no.=7269): 91.9%

Structure (SMILES): COc1cc(/C=C(\C#N)C(=O)c2ccc(O)c(O)c2)cc(I)c1O [I-OMe-Tyrphostin AG 538]
- remaining activity at 3.75 µM ([1]; Well no.=1420): 92.9%
- remaining activity at 1.25 µM ([2]; Well no.=1420): 93%

Structure (SMILES): CNC(=O)[C@H]1O[C@@H](n2cnc3c(NCc4cccc(I)c4)ncnc32)[C@H](O)[C@@H]1O [IB-MECA]
- remaining activity at 3.75 µM ([1]; Well no.=923): 99.3%
- remaining activity at 1.25 µM ([2]; Well no.=923): 94.3%

Structure (SMILES): COc1cc(OC)c(C=C2C(=O)Nc3ccccc32)c(OC)c1 [IC261]
- remaining activity at 3.75 µM ([1]; Well no.=2506): 103%
- remaining activity at 1.25 µM ([2]; Well no.=2506): 103%

Structure (SMILES): Cc1ccccc1-n1c(Cn2cnc3c(N)ncnc32)nc2cccc(C)c2c1=O [IC87114]
- remaining activity at 3.75 µM ([1]; Well no.=2945): 97.6%
- remaining activity at 1.25 µM ([2]; Well no.=2945): 98.3%

Structure (SMILES): O=C(Nc1ccc(S(=O)(=O)Nc2nccs2)cc1)C(c1ccccc1)c1ccccc1 [ICA-121431]
- remaining activity at 3.75 µM ([1]; Well no.=7878): 99.6%
- remaining activity at 1.25 µM ([2]; Well no.=7878): 98.2%

Structure (SMILES): Cc1ccc(OC[C@H](O)[C@@H](C)NC(C)C)c2c1CCC2 [ICI 118,551 hydrochloride]
- remaining activity at 3.75 µM ([1]; Well no.=1113): 102%
- remaining activity at 1.25 µM ([2]; Well no.=1113): 100%
